What was measured:
Assay in all cases: radiometric filter-binding kinase assay, Kinase HotSpot
Conditions in all cases: compound 0.5 µM; ATP 10 µM
ADRBK1 (human) = ADRBK1 (human) (UniProt P25098)
BRSK2 (human) = BRSK2 (human) (UniProt Q8IWQ3)
BTK (human) = BTK (human) (UniProt Q06187)
CAMK1 (human) = CAMK1 (human) (UniProt Q14012)
CAMK1D (human) = CAMK1D (human) (UniProt Q8IU85)
CDC42BPA (human) = CDC42BPA (human) (UniProt Q5VT25)
CDK1 CCNA2 (human) = CDK1 CCNA2 (human) (UniProt P06493+P20248)
CDK1 CCNB1 (human) = CDK1 CCNB1 (human) (UniProt P06493+P14635)
CDK4 CCND3 (human) = CDK4 CCND3 (human) (UniProt P30281+P11802)
CDK6 CCND3 (human) = CDK6 CCND3 (human) (UniProt P30281+Q00534)
CDK9 CCNT1 (human) = CDK9 CCNT1 (human) (UniProt P50750+O60563)
CSNK1G2 (human) = CSNK1G2 (human) (UniProt P78368)
CSNK1G3 (human) = CSNK1G3 (human) (UniProt Q9Y6M4)
EPHA5 (human) = EPHA5 (human) (UniProt P54756)
FGFR2 (human) = FGFR2 (human) (UniProt P21802)
GRK5 (human) = GRK5 (human) (UniProt P34947)
HCK (human) = HCK (human) (UniProt P08631)
HIPK3 (human) = HIPK3 (human) (UniProt Q9H422)
IGF1R (human) = IGF1R (human) (UniProt P08069)
INSR (human) = INSR (human) (UniProt P06213)
MAP3K14 (human) = MAP3K14 (human) (UniProt Q99558)
MATK (human) = MATK (human) (UniProt P42679)
NTRK2 (human) = NTRK2 (human) (UniProt Q16620)
PAK3 (human) = PAK3 (human) (UniProt O75914)
PLK1 (human) = PLK1 (human) (UniProt P53350)
PLK3 (human) = PLK3 (human) (UniProt Q9H4B4)
PRKCI (human) = PRKCI (human) (UniProt P41743)
[1] = tested on: PRKCQ (human), Q04759 [P330L]
PRKX (human) = PRKX (human) (UniProt P51817)
RPS6KA5 KD2 (human) = RPS6KA5 KD2 (human) (UniProt O75582)
SIK2 (human) = SIK2 (human) (UniProt Q9H0K1)
SLK (human) = SLK (human) (UniProt Q9H2G2)
SRPK3 (human) = SRPK3 (human) (UniProt Q9UPE1)
STK17A (human) = STK17A (human) (UniProt Q9UEE5)
STK33 (human) = STK33 (human) (UniProt Q9BYT3)
SYK (human) = SYK (human) (UniProt P43405)
TAOK1 (human) = TAOK1 (human) (UniProt Q7L7X3)
TBK1 (human) = TBK1 (human) (UniProt Q9UHD2)
TGFBR2 (human) = TGFBR2 (human) (UniProt P37173)
TYRO3 (human) = TYRO3 (human) (UniProt Q06418)
PKN1 (human) = PKN1 (human) (UniProt Q16512)

Sequence of INSR (human) (P06213 whole entry, looked up): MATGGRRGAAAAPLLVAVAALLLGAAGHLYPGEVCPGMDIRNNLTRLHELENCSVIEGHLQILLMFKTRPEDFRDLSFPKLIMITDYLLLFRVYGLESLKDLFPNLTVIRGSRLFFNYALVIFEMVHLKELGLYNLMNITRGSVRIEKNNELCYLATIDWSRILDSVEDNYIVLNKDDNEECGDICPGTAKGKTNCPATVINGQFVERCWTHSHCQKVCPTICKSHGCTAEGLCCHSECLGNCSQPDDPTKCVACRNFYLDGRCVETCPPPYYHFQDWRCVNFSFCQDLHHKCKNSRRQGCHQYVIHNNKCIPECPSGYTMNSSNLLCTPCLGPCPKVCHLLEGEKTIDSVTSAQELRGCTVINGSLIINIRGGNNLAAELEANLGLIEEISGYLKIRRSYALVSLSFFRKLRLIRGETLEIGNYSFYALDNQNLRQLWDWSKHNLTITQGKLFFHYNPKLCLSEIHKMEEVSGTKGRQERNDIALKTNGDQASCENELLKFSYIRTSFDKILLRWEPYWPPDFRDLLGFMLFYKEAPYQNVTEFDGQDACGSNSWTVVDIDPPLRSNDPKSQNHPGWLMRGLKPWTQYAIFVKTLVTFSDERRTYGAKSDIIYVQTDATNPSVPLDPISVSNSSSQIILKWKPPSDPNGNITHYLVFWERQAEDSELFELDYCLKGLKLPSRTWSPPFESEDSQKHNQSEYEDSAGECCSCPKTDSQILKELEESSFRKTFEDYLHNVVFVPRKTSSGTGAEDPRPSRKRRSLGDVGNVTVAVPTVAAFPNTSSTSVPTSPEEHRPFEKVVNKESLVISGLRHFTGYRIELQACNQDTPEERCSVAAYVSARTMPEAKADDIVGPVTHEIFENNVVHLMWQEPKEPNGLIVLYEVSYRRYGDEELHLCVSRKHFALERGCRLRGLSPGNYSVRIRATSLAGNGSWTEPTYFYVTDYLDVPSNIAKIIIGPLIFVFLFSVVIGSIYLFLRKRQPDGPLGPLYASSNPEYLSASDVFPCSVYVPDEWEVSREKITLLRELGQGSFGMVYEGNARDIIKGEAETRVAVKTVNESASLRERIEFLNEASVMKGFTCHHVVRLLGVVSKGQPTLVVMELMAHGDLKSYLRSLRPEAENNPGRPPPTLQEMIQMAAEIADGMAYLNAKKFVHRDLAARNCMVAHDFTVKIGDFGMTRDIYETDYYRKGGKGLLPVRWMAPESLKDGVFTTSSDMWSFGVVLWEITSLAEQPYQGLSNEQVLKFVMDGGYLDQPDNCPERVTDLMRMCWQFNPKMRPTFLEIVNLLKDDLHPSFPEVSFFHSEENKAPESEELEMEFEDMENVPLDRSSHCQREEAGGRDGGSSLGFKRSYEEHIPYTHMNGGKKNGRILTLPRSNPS
Sequence of SLK (human) (Q9H2G2 whole entry, looked up): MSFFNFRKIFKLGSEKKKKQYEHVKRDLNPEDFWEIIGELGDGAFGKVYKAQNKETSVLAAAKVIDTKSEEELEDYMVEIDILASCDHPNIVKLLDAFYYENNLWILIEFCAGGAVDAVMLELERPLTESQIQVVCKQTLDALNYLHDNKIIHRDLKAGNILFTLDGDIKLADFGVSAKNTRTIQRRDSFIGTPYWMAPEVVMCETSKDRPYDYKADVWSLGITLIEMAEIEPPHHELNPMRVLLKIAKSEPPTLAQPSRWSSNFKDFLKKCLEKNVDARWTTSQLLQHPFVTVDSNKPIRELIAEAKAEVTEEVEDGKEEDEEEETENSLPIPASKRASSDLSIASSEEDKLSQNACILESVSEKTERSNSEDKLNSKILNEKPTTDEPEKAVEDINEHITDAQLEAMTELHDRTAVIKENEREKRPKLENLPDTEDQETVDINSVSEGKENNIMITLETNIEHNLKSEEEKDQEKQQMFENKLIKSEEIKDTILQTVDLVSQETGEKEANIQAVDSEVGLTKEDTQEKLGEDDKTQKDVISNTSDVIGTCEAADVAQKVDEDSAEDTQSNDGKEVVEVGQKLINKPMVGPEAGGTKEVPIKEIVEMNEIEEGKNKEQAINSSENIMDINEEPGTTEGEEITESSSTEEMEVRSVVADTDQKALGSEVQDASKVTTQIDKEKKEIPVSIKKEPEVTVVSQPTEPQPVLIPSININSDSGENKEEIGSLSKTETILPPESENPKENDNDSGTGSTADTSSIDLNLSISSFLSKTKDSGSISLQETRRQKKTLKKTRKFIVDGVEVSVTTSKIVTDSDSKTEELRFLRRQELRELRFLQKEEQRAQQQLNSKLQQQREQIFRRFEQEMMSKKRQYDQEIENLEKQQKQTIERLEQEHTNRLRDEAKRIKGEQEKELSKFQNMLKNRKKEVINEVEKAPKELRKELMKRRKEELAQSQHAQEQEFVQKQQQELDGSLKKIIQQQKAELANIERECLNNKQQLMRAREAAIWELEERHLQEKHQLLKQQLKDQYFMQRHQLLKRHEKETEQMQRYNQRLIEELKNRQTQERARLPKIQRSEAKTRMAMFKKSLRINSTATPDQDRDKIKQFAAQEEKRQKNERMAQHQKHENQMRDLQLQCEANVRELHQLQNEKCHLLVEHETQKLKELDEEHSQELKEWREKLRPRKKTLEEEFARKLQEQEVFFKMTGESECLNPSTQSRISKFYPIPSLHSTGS
Sequence of SIK2 (human) (Q9H0K1 whole entry, looked up): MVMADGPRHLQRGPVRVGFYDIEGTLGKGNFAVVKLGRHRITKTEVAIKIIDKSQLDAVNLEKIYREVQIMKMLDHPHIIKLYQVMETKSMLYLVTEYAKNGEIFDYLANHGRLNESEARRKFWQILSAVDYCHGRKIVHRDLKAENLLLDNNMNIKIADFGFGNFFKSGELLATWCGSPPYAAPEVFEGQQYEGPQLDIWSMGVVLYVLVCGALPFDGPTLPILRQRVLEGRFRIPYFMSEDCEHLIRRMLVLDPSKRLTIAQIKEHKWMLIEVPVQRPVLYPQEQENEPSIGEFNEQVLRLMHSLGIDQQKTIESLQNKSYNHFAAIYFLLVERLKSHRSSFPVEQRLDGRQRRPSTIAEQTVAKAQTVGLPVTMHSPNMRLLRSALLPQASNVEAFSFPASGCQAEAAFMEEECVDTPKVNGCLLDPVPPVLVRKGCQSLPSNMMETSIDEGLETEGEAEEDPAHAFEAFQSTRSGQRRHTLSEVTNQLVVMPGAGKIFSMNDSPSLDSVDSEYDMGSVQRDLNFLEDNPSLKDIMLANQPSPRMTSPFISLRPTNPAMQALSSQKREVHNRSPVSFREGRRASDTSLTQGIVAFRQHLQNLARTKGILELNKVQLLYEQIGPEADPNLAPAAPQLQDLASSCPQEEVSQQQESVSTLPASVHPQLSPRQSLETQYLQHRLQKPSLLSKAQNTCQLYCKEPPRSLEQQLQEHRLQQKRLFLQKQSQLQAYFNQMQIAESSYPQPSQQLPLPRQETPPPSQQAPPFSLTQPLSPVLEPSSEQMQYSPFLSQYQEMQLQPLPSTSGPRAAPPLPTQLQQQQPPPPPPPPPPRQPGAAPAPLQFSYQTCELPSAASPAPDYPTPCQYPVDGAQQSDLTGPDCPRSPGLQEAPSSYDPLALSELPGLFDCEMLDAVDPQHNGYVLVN
Sequence of TBK1 (human) (Q9UHD2 whole entry, looked up): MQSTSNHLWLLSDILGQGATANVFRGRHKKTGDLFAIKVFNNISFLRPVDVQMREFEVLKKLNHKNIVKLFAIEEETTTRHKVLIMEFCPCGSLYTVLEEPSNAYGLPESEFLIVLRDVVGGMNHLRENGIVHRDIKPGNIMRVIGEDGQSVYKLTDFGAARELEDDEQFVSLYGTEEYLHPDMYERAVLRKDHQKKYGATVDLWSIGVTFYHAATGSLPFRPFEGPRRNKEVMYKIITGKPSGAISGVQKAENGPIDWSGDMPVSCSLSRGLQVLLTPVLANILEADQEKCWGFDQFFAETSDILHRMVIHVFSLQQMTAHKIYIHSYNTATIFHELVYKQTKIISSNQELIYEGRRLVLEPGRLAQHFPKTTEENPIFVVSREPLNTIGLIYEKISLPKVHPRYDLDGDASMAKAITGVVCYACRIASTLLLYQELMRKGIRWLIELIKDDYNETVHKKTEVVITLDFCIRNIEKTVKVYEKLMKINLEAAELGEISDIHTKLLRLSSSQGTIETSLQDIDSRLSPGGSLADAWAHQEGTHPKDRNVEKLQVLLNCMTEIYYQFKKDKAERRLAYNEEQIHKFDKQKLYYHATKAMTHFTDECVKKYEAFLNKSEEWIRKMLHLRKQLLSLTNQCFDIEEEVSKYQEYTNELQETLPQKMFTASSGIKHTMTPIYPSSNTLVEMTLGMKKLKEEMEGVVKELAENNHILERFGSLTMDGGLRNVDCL
Sequence of TGFBR2 (human) (P37173 whole entry, looked up): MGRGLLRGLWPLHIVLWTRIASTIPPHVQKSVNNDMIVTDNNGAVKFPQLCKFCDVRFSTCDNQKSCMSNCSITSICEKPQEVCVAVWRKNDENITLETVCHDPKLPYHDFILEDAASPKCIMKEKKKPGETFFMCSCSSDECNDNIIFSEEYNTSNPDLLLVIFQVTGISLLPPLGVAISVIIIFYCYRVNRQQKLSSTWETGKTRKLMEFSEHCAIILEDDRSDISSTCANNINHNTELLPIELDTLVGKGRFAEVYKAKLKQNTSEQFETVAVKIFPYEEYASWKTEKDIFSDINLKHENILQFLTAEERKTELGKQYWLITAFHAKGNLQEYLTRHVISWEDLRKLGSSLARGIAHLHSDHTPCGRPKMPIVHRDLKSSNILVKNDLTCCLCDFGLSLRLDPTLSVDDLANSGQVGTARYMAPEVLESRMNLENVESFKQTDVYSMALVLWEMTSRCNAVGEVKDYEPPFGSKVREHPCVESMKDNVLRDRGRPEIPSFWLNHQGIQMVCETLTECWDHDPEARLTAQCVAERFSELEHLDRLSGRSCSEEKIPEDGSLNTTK

SMILES | residual activity (ADRBK1 (human)) | residual activity (BRSK2 (human)) | residual activity (BTK (human)) | residual activity (CAMK1 (human)) | residual activity (CAMK1D (human)) | residual activity (CDC42BPA (human)) | residual activity (CDK1 CCNA2 (human)) | residual activity (CDK1 CCNB1 (human)) | residual activity (CDK4 CCND3 (human)) | residual activity (CDK6 CCND3 (human)) | residual activity (CDK9 CCNT1 (human)) | residual activity (CSNK1G2 (human)) | residual activity (CSNK1G3 (human)) | residual activity (EPHA5 (human)) | residual activity (FGFR2 (human)) | residual activity (GRK5 (human)) | residual activity (HCK (human)) | residual activity (HIPK3 (human)) | residual activity (IGF1R (human)) | residual activity (INSR (human)) | other results
CN(C)CCCn1cc(C2=C(c3c[nH]c4ccccc34)C(=O)NC2=O)c2ccccc21 | 96.5% | 55.6% | 93.8% | 82.7% | 68% | 97.1% | 100% | 92% | 67% | 73.3% | 65.3% | 90.3% | 96.9% | 92% | 95.4% | 71.6% | 92.3% | 102% | 91.7% | 88.9% | residual activity (MAP3K14 (human)): 110%; residual activity (MATK (human)): 100%; residual activity (NTRK2 (human)): 55.8%; residual activity (PAK3 (human)): 92.1%; residual activity (PLK1 (human)): 101%; residual activity (PLK3 (human)): 94.9%; residual activity (PRKCI (human)): 55.9%; residual activity [1]: 17.3%; residual activity (PRKX (human)): 85.3%; residual activity (RPS6KA5 KD2 (human)): 17%; residual activity (SIK2 (human)): 94.7%; residual activity (SLK (human)): 45.8%; residual activity (SRPK3 (human)): 86.9%; residual activity (STK17A (human)): 86.9%; residual activity (STK33 (human)): 62.9%; residual activity (SYK (human)): 90%; residual activity (TAOK1 (human)): 80.8%; residual activity (TBK1 (human)): 83.8%; residual activity (TGFBR2 (human)): 90.4%; residual activity (TYRO3 (human)): 97.2%
CN(C)S(=O)(=O)c1ccc2c(c1)/C(=C/c1cc3c([nH]1)CCCC3)C(=O)N2 | 95% | 48.7% | 97.4% | 107% | 99.8% | 92.3% | 70.6% | 75.4% | 99.1% | 84.2% | 95.9% | 93.8% | 101% | 85.1% | 49.3% | 95.3% | 31.6% | 107% | 89.5% | 91.6% | residual activity (MAP3K14 (human)): 94.6%; residual activity (MATK (human)): 104%; residual activity (NTRK2 (human)): 15.6%; residual activity (PAK3 (human)): 97.6%; residual activity (PKN1 (human)): 91.2%; residual activity (PLK1 (human)): 101%; residual activity (PLK3 (human)): 94.5%; residual activity (PRKCI (human)): 95.9%; residual activity [1]: 112%; residual activity (PRKX (human)): 98.1%; residual activity (RPS6KA5 KD2 (human)): 106%; residual activity (SIK2 (human)): 86.4%; residual activity (SLK (human)): 23.4%; residual activity (SRPK3 (human)): 67.2%; residual activity (STK33 (human)): 77.2%; residual activity (SYK (human)): 77.7%; residual activity (TAOK1 (human)): 85.8%; residual activity (TBK1 (human)): 80.6%; residual activity (TGFBR2 (human)): 129%; residual activity (TYRO3 (human)): 57.2%

From the kinase profiling compilation of Christmann-Franck et al. (2016)
